Results reported in paper PMC2674587 (BMC Immunology, 2009).
Like-named read-outs stand apart in the source and are kept apart here.

What was measured:
hDPP-9 [1] = target: T1, hDPP-9 (Homo sapiens, UniProt Q86TI2); parameters: method as in PMID 16186403, PMID 16731832; settings: read-out: does not inhibit DPP-9 at; cited from earlier work
[2] = tested on: T cell-dependent antibody responses to NP-CGG; experiment: T cell-dependent antibody responses to NP-CGG (ELISA titers, altered ligand density ELISA); format: in vivo, C57BL/6 mice; settings: mice on chow ~400 mg/kg, immunized with NP-CGG
Description: Mice were immunized i.p. with 100 μg of NP-CGG in alum for the primary immunization, and 100 μg of NP-CGG in PBS i.p. for the secondary immunization. Mice were bled via the retro orbital sinus at indicated times and the levels of anti-NP and CGG antibodies and their isotypes were determined by ELISA as described previously. Briefly, mouse serum antibodies were immobilized onto 96-well plates coated with NP-BSA or CGG and detected with biotin-conjugated anti-mouse immunoglobulins. […] Relative affinities of serum antibodies were evaluated by using altered ligand density ELISA as described earlier.

[3] = tested on: H-Y+ target cells (male splenocytes); experiment: In vivo cytotoxicity (CTL) assay against H-Y antigen; parameters: species or system C57BL/6 mice; settings: for killing of male cells (CD8 T cell mediated): female mice primed and boosted with male splenocytes, CFSE-labeled targets, FACS, n = 8
Description: C57BL/6 female and male mice, age 8 ~10 weeks, were used for in vivo cytotoxicity assays. Female mice were immunized i.p. with syngeneic C57BL/6 male splenocytes (1 × 10^7 in 100 μl PBS) at day 0 and boosted at day 10 to generate anti-H-Y cytotoxic T cells. The in vivo CTL assay was performed as described earlier with some modifications Target cells were prepared and adoptively transferred to recipient female mice at day 18 post priming and specific killing of target H-Y^+ cells was analyzed at day 19. Briefly, male and female C57BL/6 naïve splenocytes were isolated and depleted of erythrocyte with RBC lysis buffer (Sigma-Aldrich, St. Louis, MO, USA). The splenocytes were washed 1× with 10% FBS RPMI 1640 and 2× with PBS. The cell densities were adjusted to 2×10^7 cells/ml. Male splenocytes were labeled with a high concentration (5 μM) of 5,6-carboxy-fluorescein succinimdyl ester (CFSE, Molecular Probes, Eugene, OR, USA), and the female splenocyte were labeled with low CFSE (0.5 μM). CFSE labeling was carried out by incubating 2 × 10^7 cells/ml in PBS with CFSE at 37°C in a 5% CO2 incubator for 10 min and quenched by adding 10% FBS RPMI to a final volume of 50 ml. Cells were washed 1× with 10%FBS RPMI and 2× with PBS to remove free CFSE. Male and female splenocytes were mixed 1:1 in PBS for the adoptive transfer. 10^6 cells in 200 μl PBS were injected into recipient female mice via tail vein injection. Similar amounts of cell were injected into the control unimmunized female mice. Spleens from the recipient mice were harvested after 16 hr, and splenocytes were analyzed for specific killing of H-Y^+ target cells by FACS. At least 5,000 CFSE positive cells were analyzed. The recovery and percent killing of the CFSE-labeled targets were calculated as follows: […]

hDPP-2 = hDPP-2 (Homo sapiens, UniProt Q9UHL4); experiment: DPP-2 enzyme inhibition; format: biochemical
Amino peptidase P = settings: read-out: does not inhibit Amino peptidase P; cited from earlier work
Proline dipeptidase = settings: read-out: does not inhibit Proline dipeptidase; cited from earlier work
hDPP-9 [4] = target: T1, hDPP-9; experiment: DPP-9 enzyme inhibition; format: biochemical
[5] = tested on: Fibroblast activation protein; settings: read-out: does not inhibit Fibroblast activation protein; cited from earlier work
Prolidase = settings: read-out: does not inhibit Prolidase; cited from earlier work
Prolyl endopeptidase = settings: read-out: does not inhibit Prolyl endopeptidase; cited from earlier work

T1 sequence (Q86TI2 whole entry): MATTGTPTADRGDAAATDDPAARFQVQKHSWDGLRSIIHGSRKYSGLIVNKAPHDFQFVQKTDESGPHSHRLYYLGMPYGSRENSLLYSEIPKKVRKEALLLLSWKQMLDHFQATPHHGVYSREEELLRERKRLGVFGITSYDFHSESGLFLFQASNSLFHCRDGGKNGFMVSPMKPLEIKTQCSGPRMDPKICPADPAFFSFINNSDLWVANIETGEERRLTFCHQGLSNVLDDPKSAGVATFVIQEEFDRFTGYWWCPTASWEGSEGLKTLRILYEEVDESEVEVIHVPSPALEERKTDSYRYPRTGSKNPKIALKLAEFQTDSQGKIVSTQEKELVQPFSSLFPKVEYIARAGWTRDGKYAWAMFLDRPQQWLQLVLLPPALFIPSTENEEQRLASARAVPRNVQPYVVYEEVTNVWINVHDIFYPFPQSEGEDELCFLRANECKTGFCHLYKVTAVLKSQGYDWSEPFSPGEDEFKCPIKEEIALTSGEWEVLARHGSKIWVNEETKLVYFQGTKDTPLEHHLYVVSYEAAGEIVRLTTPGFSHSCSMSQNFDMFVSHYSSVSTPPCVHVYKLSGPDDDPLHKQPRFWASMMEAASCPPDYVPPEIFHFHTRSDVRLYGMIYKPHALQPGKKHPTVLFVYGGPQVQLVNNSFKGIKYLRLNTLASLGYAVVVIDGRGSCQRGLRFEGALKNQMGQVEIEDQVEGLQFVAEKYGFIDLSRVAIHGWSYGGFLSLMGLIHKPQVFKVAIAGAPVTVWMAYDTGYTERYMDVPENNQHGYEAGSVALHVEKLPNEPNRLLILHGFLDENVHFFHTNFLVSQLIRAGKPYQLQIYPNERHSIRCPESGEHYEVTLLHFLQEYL

Row | Structure (SMILES) | IC50 (hDPP-9 [1]) [µM] | titers of anti-CGG IgG1 and other isotypes, drug treated vs control animals [2] | total anti-NP response as measured by λ-bearing and G1 isotype ([2]; primary and secondary response vs control) | killing of male cells (CD8 T cell mediated) [3] | CD8 T cell cytotoxicity in comparison to the wild type animals ([3]; female mice primed with male cells, compound in chow throughout) | IC50 (hDPP-2) [µM] | IC50 (Amino peptidase P) [µM] | IC50 (Proline dipeptidase) [µM] | IC50 (hDPP-9 [4]) [µM] | IC50 [5] [µM] | IC50 (Prolidase) [µM] | IC50 (Prolyl endopeptidase) [µM]
1 | N[C@@H](CC(=O)N1CCn2c(nnc2C(F)(F)F)C1)Cc1cc(F)ccc1F [Des-flurositagliptin, des-fluro sitagliptin] | > 10 | similar | unaltered | ~ 67% | equivalent cytotoxicity | > 10 | > 10 | > 10 | > 10 | > 10 | > 10 | > 10
2 | C=CC[C@@H]1/C=C(\C)C[C@H](C)C[C@H](OC)[C@H]2O[C@@](O)(C(=O)C(=O)N3CCCC[C@H]3C(=O)O[C@H](/C(C)=C/[C@@H]3CC[C@@H](O)[C@H](OC)C3)[C@H](C)[C@@H](O)CC1=O)[C@H](C)C[C@@H]2OC [FK506] |  |  |  | 40% |  |  |  |  |  |  |  | 
